Assay results: patent publication US4139621A, “N-(4-substituted-3,5-dichloro-phenyl)-piperazines” (Beecham Group Limited, priority 1976, dated 1979)

What was measured:
[1] = Anti-Catapresan test (anti-catapresan induced fighting test); assay type: in vivo; conditions: po; mouse
Description: (§1) 1-(3,4,5-Trichlorophenyl)piperazine hydrochloride [compound A] was tested in various conventional screens used for determining the effect of major tranquillizors. In these tests chlopromazine was used as a positive control. The results obtained were as follows:
(§2) The activity of Compound A in the anti-catapresan induced fighting test and the inhibition of conditioned avoidance responses in the shuttlebox tests indicate that Compound A has potential neuroleptic/anxiolytic activity in man.

[2] = Shuttlebox (conditioned avoidance behaviour in the rat), % inhibition of crossing rate; assay type: in vivo
Description: as §1, §2

[3] = Induction of catalepsy in the rat; assay type: in vivo
Description: as §1
catalepsy in 0% at 54% at
the rat. 40 mg/kg s.c. 10 mg/kg i.p.
as §2

[4] = Activity in man extrapolated from potency relative to chlorpromazine in animal tests; conditions: orally, inferred from potency relative to chlorpromazine in animal tests
Source text: as §2

## Cl.Clc1cc(N2CCNCC2)cc(Cl)c1Cl [Compound A, 1-(3,4,5-Trichlorophenyl)piperazine hydrochloride]
[1]
  ED50: 6 mg/kg
[2]; 5 mg/kg p.o.
  % inhibition of crossing rate, Shuttlebox: -73%
[3]
  cataleptic activity: lack of cataleptic activity
[3]; 40 mg/kg s.c.
  Induction of catalepsy: 0%
[4]
  daily doses at which active in man: 0.2 to 10 mg/kg

## CN(C)CCCN1c2ccccc2Sc2ccc(Cl)cc21 [Chlorpromazine, chlorpromazine, reference compound]
[1]
  ED50: 2.8 mg/kg
[2]; 10 mg/kg p.o.
  % inhibition of crossing rate, Shuttlebox: -67%
[3]; 10 mg/kg i.p.
  Induction of catalepsy: 54%
